# Laboratory results reported in patent publication US10508092B2, “Synthesis of novel analogs of diptoindonesin G, compounds formed thereby, and pharmaceutical compositions containing them” (Wisconsin Alumni Research Foundation, priority 2016, dated 2019).
# Several values for one entry are separate records, joined by “and”; a condition that tells them apart may be missing. Identical values can stand only once. Entries after “also recorded” stand apart in the source; their conditions may differ.
# What was measured:
# [1] = Toxicity observations in treated mice (AST ELISA, gross tissue, injection site); assay type: in vivo
# Method: Dip G was synthesized as described and formulated for the in vivo treatment. Dip G was prepared by dissolving the stock powder in 100% DMSO to a final concentration of 50 mg/ml. This stock solution was then diluted 1:5 into a 40% polyethylene glycol (PEG300)/40% normal saline (0.9% NaCl) solution to a final concentration of 20% Dip G solution. […] To determine MTD, escalating doses of Dip G dissolved in the aforementioned formulation were injected retro-orbitally or by oral gavage daily, five days out of seven to determine the MTD. […] (Data not shown.) Dip G was intra-tumorally delivered to ERα-positive T47D xenografted mice three times a week and the tumors were monitored for three weeks. […] (AST ELISAs are available commercially from several suppliers, including Abcam, Cambridge, Mass.)
# (§1) Mice were monitored twice weekly for weight changes and tumor growth (measured in diameter and volume) with calipers. Following tumors reaching an appropriate size (˜5 mm in diameter, taking approximately 3 months after grafting), intra-tumoral injections were begun with vehicle containing 20 mg/kg of Dip G or control vehicle in a total volume of 50 μL split between tumors on each mammary fat pad. Three mice (6 tumors) received control injections and eight (16 tumors) received Dip G. Injections were administered 3 times per week with at least one day of rest between injections, for a total of 10-12 injections. Cohorts were sacrificed by cage individually in numerical order, beginning with the 10th injection and sacrificing one cage per injection for pharmacokinetic time points from that injection onward. In mice with very small tumors, dosing was switched from intra-tumoral to subcutaneous at later time points.
# ERα = ERα transcriptional activity in MCF7 cells; assay type: cell-based, human
# [2] = system: estrogen receptor α (ERα); assay: Western blot of ERα levels in MCF7 cells; assay type: cell-based, human
# Method: FIGS. 1A, 1B, and 1C together depict the biological activity of the subject compounds on estrogen receptor α (ERα) levels in human breast cancer cells.
# The biological activity of these four analogs were then compared with the parent compound Dip G following our previous protocol (Zhao et al., supra). See FIGS. 1A, 1B, 1C, 2A, 2B, and 2C. Cells were treated with each compound at 10 μM concentration in order to evaluate how well each modified the stability of ERα and ERβ.
# MCF7 cells were treated with Dip G and analogs for 24 hours before harvesting. Hs578T-tet-on-ERβ cells (ATCC HTB-126; American Type Culture Collection, Manassas, Va.) were treated with doxycycline for 24 hours to induce ERβ expression. Then the cells were treated with compounds for 5 days before harvesting. 15 μg of total cell lysates were resolved on SDS-PAGE and Western blot analyses were performed as previously described using ERα antibody (HC-20, Santa Cruz Biotechnology, Inc., Dallas, Tex.) and anti-FLAG antibody (F7425, Sigma-Aldrich Co., LLC, St. Louis, Mo.) for ERβ.^3
# T47D xenograft tumor = T47D xenograft tumor growth in mice, intra-tumoral dosing; assay type: in vivo, mouse
# Method: Dip G inhibited growth of T47D xenograft tumor in vivo. Dip G was synthesized as described and formulated for the in vivo treatment. Dip G was prepared by dissolving the stock powder in 100% DMSO to a final concentration of 50 mg/ml. This stock solution was then diluted 1:5 into a 40% polyethylene glycol (PEG300)/40% normal saline (0.9% NaCl) solution to a final concentration of 20% Dip G solution. The maximum tolerated dose (MTD) of Dip G was determined to be 50 mg/kg by oral and 20 mg/kg by retro-orbital injection in mouse models. To determine MTD, escalating doses of Dip G dissolved in the aforementioned formulation were injected retro-orbitally or by oral gavage daily, five days out of seven to determine the MTD. […] (Data not shown.) Dip G was intra-tumorally delivered to ERα-positive T47D xenografted mice three times a week and the tumors were monitored for three weeks. […] Control-treated tumors were 70% of original size, while tumors (n=16) treated with Dip G were 46% of original size (FIG. 3). Under these treatment conditions, some Dip G-treated tumors completely regressed. […] (AST ELISAs are available commercially from several suppliers, including Abcam, Cambridge, Mass.)
# Diptoindonesin G (Dip G) was obtained from the small molecule screening facility. Dip G was prepared by dissolving the stock powder in 100% DMSO to a final concentration of 50 mg/mL. This stock solution was then diluted 1:5 into a 40% polyethylene glycol (PEG 300)/40% normal saline (0.9% NaCl) solution to a final concentration of 20% Dip G solution. Vehicle was prepared identically, substituting DMSO instead of Dip G solution. PEG and saline were filtered at […] prior to use to ensure sterility.
# Twelve Foxn1-nu homozygous mice were obtained from The Jackson Laboratory (Bar Harbor, Me.). Mice were randomized to control or active treatment prior to estrogen pellet placement. After allowing time for acclimatization, estrogen pellets were surgically inserted into the test mice, subcutaneously on the back. The skin at the site of surgery was prepared by washing with povidone iodine, allowing a three-minute contact time. Surgery was performed in a laminar flow hood while mice were under anesthesia. Incisions of less than 1 cm were made low in the back using a short scissors. Slow-release estrogen pellets (0.05 mg/60 day release) were implanted in each incision. Wounds were sealed with “VETBOND”®-brand surgical adhesive (3M Company, St. Paul, Minn.). At the same time, the mice were injected with 10^7 T-47D cells (ATCC HTB-133) twice, once in each mammary fat pad underneath the leg with 100 uL of fluid per injection site, using 25G needles.
# as §1
# wildtype ERα = assay: ERE-Luciferase activity of wildtype ERα in T47D cells; assay type: cell-based, human; settings: co-treated with 10 nM E2, 10 μM, 24 hrs
# Method: FIG. 6 is a histogram depicting Dip G- and Dip G-D1-inhibited E2-dependent ERE-Luciferase activities of wildtype ERα or ERα Y537S in T47D cells. Cells were co-treated with 10 nM E2 and Dip G or Dip G-D1 (10 μM) for 24 hrs. The experiments were performed in triplicate. Data are represented as mean±SD, n=3.
# [3] = system: murine leukemia P-388 cells; settings: cited from earlier work
# [4] = individual tumor, 20 mg/kg intra-tumoral 3 times per week, 20 mg/kg
structure (smiles),measurement,setting,value
"O=C1c2c(O)cc(O)cc2-c2c(-c3ccc(O)cc3)oc3cc(O)cc1c23 [Dip G, diptoindonesin G]",liver toxicity,[1]; AST ELISA assay,undetectable
same,AST activity,"[1]; aspartate aminotransferase ELISA, treated xenograft mice",around 70 milliunits/mL
same,toxicity in vivo,[1]; high concentrations,No obvious toxicity
same,signs around the tumor and the site of injection,"[1]; intra-tumoral injection, not observed with vehicle only","subcutaneous bleeding, bruising, and discoloration"
same,gross tissue damage,"[1]; liver, lung, kidney, brain, and heart",no gross tissue damages were observed
same,ERα transcriptional activity,ERα,decreases ERα transcriptional activity
same,amount of endogenous ERα in MCF7 cells,"[2]; 10 μM, compared to untreated cells, gel blot FIG. 4",degrades endogenous ERα; also recorded: greatly decreased
same,ERα stability,"[2]; MCF7 cells, 10 μM, 24 hours, Western blot",decreased ERα stability with the largest change
same,endogenous ERα protein levels,"[2]; MCF7 cells, FIG. 4",less than 20%
same,tumor size as % of original size,"T47D xenograft tumor; T47D xenograft, 20 mg/kg intra-tumoral 3 times per week, 21 days, n=16 tumors, control 70%",46%
same,responders (tumors decreasing by 50% or more),"T47D xenograft tumor; T47D xenograft, 12 of 16 tumors, control 17%, p=0.023",75%
same,xenografted tumor growth,"T47D xenograft tumor; T47D xenograft, 21 days, versus vehicle-treated controls",strongly inhibited
same,decrease in tumor volume,"T47D xenograft tumor; T47D xenograft, at study completion, n=16 tumors, control 30%",54%
same,"Tumor Volumes, Day 3",T47D xenograft tumor; [4],113.1 mm^3 and 29.8 mm^3 and 71.4 mm^3 and 25.7 mm^3 and 69.6 mm^3 and 17.2 mm^3 and 126.0 mm^3 and 79.8 mm^3 and 144.9 mm^3 and 40.7 mm^3 and 43.3 mm^3 and 70.7 mm^3 and 30.8 mm^3 and 15.1 mm^3 and 149.4 mm^3 and 68.9 mm^3
same,"Tumor Volumes, Day 5",T47D xenograft tumor; [4],100.0 mm^3 and 34.7 mm^3 (2×) and 36.0 mm^3 and 58.8 mm^3 (2×) and 23.1 mm^3 and 108.0 mm^3 and 84.7 mm^3 and 152.5 mm^3 and 51.6 mm^3 and 44.0 mm^3 and 36.1 mm^3 and 18.9 mm^3 and 111.6 mm^3 and 87.7 mm^3
same,"Tumor Volumes, Day 8",T47D xenograft tumor; [4],74.1 mm^3 and 20.0 mm^3 and 26.0 mm^3 and 14.5 mm^3 and 52.9 mm^3 and 14.0 mm^3 and 65.0 mm^3 and 55.0 mm^3 and 99.1 mm^3 and 32.8 mm^3 and 46.6 mm^3 and 55.2 mm^3 and 20.7 mm^3 and 21.8 mm^3 and 43.6 mm^3 and 40.3 mm^3
same,"Tumor Volumes, Day 10",T47D xenograft tumor; [4],106.2 mm^3 and 73.0 mm^3 and 39.2 mm^3 and 37.6 mm^3 and 64.8 mm^3 and 28.1 mm^3 and 105.6 mm^3 and 95.3 mm^3 and 123.0 mm^3 and 49.0 mm^3 and 56.1 mm^3 and 58.2 mm^3 and 32.9 mm^3 and 44.5 mm^3 and 63.6 mm^3 and 67.7 mm^3
same,"Tumor Volumes, Day 12",T47D xenograft tumor; [4],225.3 mm^3 and 33.6 mm^3 and 34.5 mm^3 and 18.5 mm^3 and 77.2 mm^3 and 13.9 mm^3 and 123.6 mm^3 and 0.5 mm^3 (2×) and 97.7 mm^3 and 48.7 mm^3 and 49.0 mm^3 and 63.6 mm^3 and 29.4 mm^3 and 23.1 mm^3 and 189.2 mm^3
same,"Tumor Volumes, Day 15",T47D xenograft tumor; [4],81.6 mm^3 and 41.6 mm^3 and 35.3 mm^3 and 32.0 mm^3 and 78.0 mm^3 and 19.7 mm^3 and 72.5 mm^3 and 37.0 mm^3 and 62.5 mm^3 and 22.9 mm^3 and 35.4 mm^3 and 53.0 mm^3 and 22.0 mm^3 and 20.1 mm^3 and 92.5 mm^3 and 49.6 mm^3
same,"Tumor Volumes, Day 19",T47D xenograft tumor; [4],91.9 mm^3 and 38.8 mm^3 and 12.0 mm^3 and 19.7 mm^3 and 45.6 mm^3 and 11.5 mm^3 and 58.8 mm^3 and 28.7 mm^3 and 90.9 mm^3 and 15.6 mm^3 and 24.6 mm^3 and 35.7 mm^3 (2×) and 14.9 mm^3 and 9.3 mm^3 and 58.2 mm^3
same,"Tumor Volumes, Day 23",T47D xenograft tumor; [4],0.5 mm^3 and 12.2 mm^3 and 9.1 mm^3 and 29.7 mm^3 and 81.5 mm^3 and 10.3 mm^3 and 51.9 mm^3 and 13.1 mm^3 and 7.9 mm^3 and 9.5 mm^3 and 28.1 mm^3 and 29.8 mm^3 and 18.5 mm^3 and 10.1 mm^3 and 34.2 mm^3 and 14.9 mm^3
same,"Tumor Volumes, Day 0","T47D xenograft tumor; individual tumor, baseline, T47D xenograft",75.1 mm^3 and 40.3 mm^3 and 39.7 mm^3 and 71.3 mm^3 (2×) and 50.8 mm^3 and 25.4 mm^3 and 80.2 mm^3 (2×) and 96.2 mm^3 and 24.9 mm^3 and 70.2 mm^3 and 29.6 mm^3 and 23.1 mm^3 and 47.1 mm^3 and 52.9 mm^3
same,E2-dependent ERE-Luciferase activity of wildtype ERα,wildtype ERα,inhibited
same,anti-proliferation effect,[3],anti-proliferation effect
